According to patent US10570121B2, “Substituted dihydroisoquinolinone compounds” (priority 2014, dated 2020):
Where two headings read alike, the source gives them in different places.

Legend:
Type in all cases: biochemical
[1] = target: T1, WT EZH2 (Homo sapiens (Human), UniProt Q15910); assay: WT EZH2 nucleosome assay; conditions: PRC2 4-protein complex 4 nM, 1.5 μM SAM, HeLa oligonucleosomes
Method: The genes for EZH2, EED, SUZ12, and RBBP4 proteins were cloned into pBacPAK9 vectors (Clontech). RBBP4 was FLAG tagged on the N-terminal end. The baculovirus expressions of these proteins were used to co-infect SF9 insect cells. Insect cell pellets were lysed in a buffer containing 25 mM Tris pH8.0, 300 mM NaCl, 0.5 mM TCEP, complete EDTA-free protease inhibitor (Roche), 0.1% NP-40. The supernatant from the lysate was incubated with FLAG® M2 antibody resin (Sigma). The resin was washed on the chromatography column and eluted with 0.2 mg/ml FLAG peptide. The elute was incubated with omnicleave nucleases (Epicentre Technologies) at 4° C. overnight, then concentrated and loaded onto a Superdex 200 (GE Healthcare) column. The Superdex 200 column was eluted with 25 mM Tris pH8.0, 150 mM NaCl, 0.5 mM TCEP. Fractions containing the PRC2 complex were pooled.
A. Compound preparation • 1.
B. Reagent preparation • 1. […] Dilute TCA to 20% in DI water
C. Enzyme reaction • 1. […] Some compounds were tested under high SAM conditions.
D. Data analysis • 1. IC50 values were determined by fitting the data to a 4-parameter IC50 equation using proprietary curve fitting software. • 2. For compounds tested under high SAM conditions, Ki^app values were obtained by fitting the dose response curve to a model for competitive inhibition using proprietary curve fitting software. Preparation of HeLa Oligonucleosomes: Reagents • Cell Pellet: 15 L HeLa S3 (Accelgen)+6 L HeLa S3 (in house) • Mnase (Worthington Biochemicals) Equipment • SW-28 Rotor • Dounce Homogenizer/B Pestle Buffers • Lysis: 20 mM Hepes pH 7.5, 0.25M Sucrose, 3 mM MgCl2, 0.5% Nonidet P-40, 0.5 mM TCEP, 1 Roche Protease Tablet • B: 20 mM Hepes pH7.5, 3 mM MgCl2, 0.5 mM EDTA, 0.5 mM TCEP, 1 Roche Protease Tablet • MSB: 20 mM Hepes pH7.5, 0.4 M NaCl, 1 mM EDTA, 5% v/v Glycerol, 0.5 mM TCEP, 0.2 mM PMSF • LSB: 20 mM Hepes pH7.5, 0.1M NaCl, 1 mM EDTA, 0.5 mM TCEP, 0.2 mM PMSF • NG: 20 mM Hepes pH7.5, 1 mM EDTA, 0.4 m NaCl, 0.2 mM PMSF, 0.5 mM TCEP • Storage: 20 mM Hepes pH7.5, 1 mM EDTA, 10% Glycerol, 0.2 mM PMSF, 0.5 mM TCEP Protocol

[2] = target: EZH2 Mutant Y641N (Homo sapiens (Human), UniProt Q15910, Y641N); assay: EZH2 Mutant Y641N nucleosome assay; conditions: PRC2 4-protein complex 6 nM, 1.5 μM SAM, HeLa oligonucleosomes
[3] = target: T1, WT EZH2; assay: WT EZH2 nucleosome assay (10X SAM, high SAM conditions); conditions: 15 uM SAM, Ki app from competitive inhibition fit
[4] = WT EZH2 Nucleosome assay IC50 (μM)
[5] = EZH2 Mutant Y641N Nucleosome assay IC50 (μM)
[6] = read-out: WT EZH2 Nucleosome assay IC50
[7] = read-out: EZH2 Mutant Y641N Nucleosome assay IC50
[8] = read-out: WT EZH2 Nucleosome assay (10X SAM) Ki

T1 sequence (Q15910 whole entry, looked up): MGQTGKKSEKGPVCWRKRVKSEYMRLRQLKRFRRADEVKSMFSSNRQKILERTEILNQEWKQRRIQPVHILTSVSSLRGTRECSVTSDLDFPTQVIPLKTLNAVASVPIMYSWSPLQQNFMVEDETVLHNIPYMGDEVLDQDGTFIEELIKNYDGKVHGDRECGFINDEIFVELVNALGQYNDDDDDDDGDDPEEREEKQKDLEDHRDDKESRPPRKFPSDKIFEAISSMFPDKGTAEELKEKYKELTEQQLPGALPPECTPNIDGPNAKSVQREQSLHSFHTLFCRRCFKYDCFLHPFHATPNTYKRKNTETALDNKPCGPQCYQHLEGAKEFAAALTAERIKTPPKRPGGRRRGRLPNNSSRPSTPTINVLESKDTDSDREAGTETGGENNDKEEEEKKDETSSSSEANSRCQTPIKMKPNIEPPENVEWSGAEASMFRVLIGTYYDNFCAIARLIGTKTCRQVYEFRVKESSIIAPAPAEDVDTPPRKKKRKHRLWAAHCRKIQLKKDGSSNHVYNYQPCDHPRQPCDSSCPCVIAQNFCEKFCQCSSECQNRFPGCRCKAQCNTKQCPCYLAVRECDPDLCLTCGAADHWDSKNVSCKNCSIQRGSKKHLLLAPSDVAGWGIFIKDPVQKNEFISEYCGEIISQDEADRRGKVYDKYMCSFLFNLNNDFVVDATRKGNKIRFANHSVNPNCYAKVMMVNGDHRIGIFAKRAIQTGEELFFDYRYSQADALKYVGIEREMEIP
T1 sequence (O75530 whole entry partner, looked up): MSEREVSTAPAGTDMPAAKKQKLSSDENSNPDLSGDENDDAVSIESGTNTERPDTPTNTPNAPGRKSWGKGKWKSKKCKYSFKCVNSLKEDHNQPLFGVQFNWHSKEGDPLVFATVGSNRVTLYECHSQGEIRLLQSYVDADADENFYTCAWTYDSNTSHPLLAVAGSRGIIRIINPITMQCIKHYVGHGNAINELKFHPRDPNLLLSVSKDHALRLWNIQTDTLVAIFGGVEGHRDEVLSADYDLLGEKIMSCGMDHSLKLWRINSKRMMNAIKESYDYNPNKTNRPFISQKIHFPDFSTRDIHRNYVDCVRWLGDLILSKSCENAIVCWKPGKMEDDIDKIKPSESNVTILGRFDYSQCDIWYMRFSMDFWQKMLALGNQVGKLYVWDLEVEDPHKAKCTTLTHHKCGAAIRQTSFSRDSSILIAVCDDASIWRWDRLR
T1 sequence (Q15022 whole entry partner, looked up): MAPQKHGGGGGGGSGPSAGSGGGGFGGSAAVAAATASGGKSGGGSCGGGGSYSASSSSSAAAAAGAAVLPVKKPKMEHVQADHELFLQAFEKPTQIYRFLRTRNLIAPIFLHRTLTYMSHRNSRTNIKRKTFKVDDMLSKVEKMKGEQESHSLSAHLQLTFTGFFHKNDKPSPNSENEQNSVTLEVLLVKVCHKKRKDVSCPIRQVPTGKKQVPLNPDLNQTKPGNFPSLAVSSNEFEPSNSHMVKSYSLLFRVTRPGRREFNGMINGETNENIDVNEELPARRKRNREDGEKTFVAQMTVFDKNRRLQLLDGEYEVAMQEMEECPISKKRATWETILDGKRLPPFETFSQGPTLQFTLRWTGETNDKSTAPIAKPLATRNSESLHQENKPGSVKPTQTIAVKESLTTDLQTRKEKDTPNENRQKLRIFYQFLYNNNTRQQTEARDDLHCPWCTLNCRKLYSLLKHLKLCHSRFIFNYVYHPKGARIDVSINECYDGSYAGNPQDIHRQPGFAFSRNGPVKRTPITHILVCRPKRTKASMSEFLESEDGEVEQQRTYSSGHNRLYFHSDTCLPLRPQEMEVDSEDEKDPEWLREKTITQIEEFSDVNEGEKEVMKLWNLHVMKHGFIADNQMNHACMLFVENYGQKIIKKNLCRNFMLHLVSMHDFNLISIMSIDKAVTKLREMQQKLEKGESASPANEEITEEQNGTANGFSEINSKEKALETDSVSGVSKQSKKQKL
T1 sequence (Q09028 whole entry partner, looked up): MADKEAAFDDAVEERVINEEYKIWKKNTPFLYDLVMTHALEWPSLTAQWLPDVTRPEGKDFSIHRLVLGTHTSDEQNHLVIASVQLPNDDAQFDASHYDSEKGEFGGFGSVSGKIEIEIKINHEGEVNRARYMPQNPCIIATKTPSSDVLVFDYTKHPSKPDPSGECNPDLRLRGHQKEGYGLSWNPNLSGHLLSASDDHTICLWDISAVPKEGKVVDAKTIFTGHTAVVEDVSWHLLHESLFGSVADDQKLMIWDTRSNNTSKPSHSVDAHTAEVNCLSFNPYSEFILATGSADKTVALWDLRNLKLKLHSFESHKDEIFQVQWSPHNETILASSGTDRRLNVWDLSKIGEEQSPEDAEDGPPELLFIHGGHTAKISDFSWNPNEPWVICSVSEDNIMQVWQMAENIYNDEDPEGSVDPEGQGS
EZH2 Mutant Y641N, sequence (Q15910 whole entry Y641N, looked up): as the sequence (Q15910 whole entry, looked up) above, with Y641N counted along it
EZH2 Mutant Y641N, sequence (O75530 whole entry partner, looked up): as the sequence (O75530 whole entry partner, looked up) above
EZH2 Mutant Y641N, sequence (Q15022 whole entry partner, looked up): as the sequence (Q15022 whole entry partner, looked up) above
EZH2 Mutant Y641N, sequence (Q09028 whole entry partner, looked up): as the sequence (Q09028 whole entry partner, looked up) above

| SMILES | IC50 [1, 4] [µM] | IC50 [2, 5] [µM] | IC50 [1, 6] [µM] | IC50 [2, 7] [µM] | further results |
| --- | --- | --- | --- | --- | --- |
| Cc1cc(C)c(CN2CCc3c(Cl)cc(C(C)CO)c(Cl)c3C2=O)c(=O)[nH]1 (racemic) [Example 17] | 0.035 | 0.125 |  |  |  |
| CCC(CO)c1cc(Cl)c2c(c1Cl)C(=O)N(Cc1c(C)cc(C)[nH]c1=O)CC2 (racemic) [Example 20] | 0.011 | 0.053 |  |  |  |
| Cc1cc(C)c(CN2CCc3c(Cl)cc(C(C)CN(C)CCO)c(Cl)c3C2=O)c(=O)[nH]1 (racemic) [Example 21] |  |  | 0.015 | 0.109 |  |
| Cc1cc(C)c(CN2CCc3c(Cl)cc(C(C)C4CCN(C(=O)CO)CC4)c(Cl)c3C2=O)c(=O)[nH]1 (racemic) [Example 24] |  |  | 0.004 | 0.008 |  |
| CCC(O)c1cc(Cl)c2c(c1Cl)C(=O)N(Cc1c(C)cc(C)[nH]c1=O)CC2 (racemic) [Example 25] | 0.084 | 0.693 |  |  |  |
| Cc1cc(C)c(CN2CCc3c(Cl)cc(C(CO)C4CCOCC4)c(Cl)c3C2=O)c(=O)[nH]1 (racemic) [Example 31] | 0.004 | 0.006 |  |  |  |
| Cc1cc(C)c(CN2CCc3c(Cl)cc(C(C)C#N)c(Cl)c3C2=O)c(=O)[nH]1 (racemic) [Example 32] |  |  | 0.093 | 1.13 |  |
| Cc1cc(C)c(CN2CCc3c(Cl)cc(C(C)CCO)c(Cl)c3C2=O)c(=O)[nH]1 (racemic) [Example 33] |  |  | 0.012 | 0.07 |  |
| Cc1cc(C)c(CN2CCc3c(Cl)cc([C@H](CO)[C@@H]4CCOC4)c(Cl)c3C2=O)c(=O)[nH]1 (single isomer, unassigned) [Example 2, 5,8-dichloro-2-[(4,6-dimethyl-2-oxo-1,2-dihydropyridin-3-yl)methyl]-7-{(1R*)-2-hydroxy-1-[(3S*)-tetrahydrofuran-3-yl]ethyl}-3,4-dihydroisoquinolin-1(2H)-one] | 0.002 | 0.004 |  |  |  |
| Cc1cc(C)c(CN2CCc3c(Cl)cc([C@@H](CO)[C@H]4CCOC4)c(Cl)c3C2=O)c(=O)[nH]1 (single isomer, unassigned) [Example 3, 5,8-dichloro-2-[(4,6-dimethyl-2-oxo-1,2-dihydropyridin-3-yl)methyl]-7-{(1S*)-2-hydroxy-1-[(3R*)-tetrahydrofuran-3-yl]ethyl}-3,4-dihydroisoquinolin-1(2H)-one] | 0.066 |  |  |  |  |
| COC(CO)c1cc(Cl)c2c(c1Cl)C(=O)N(Cc1c(C)cc(C)[nH]c1=O)CC2 (single isomer, unassigned) [Example 10, 5,8-dichloro-2-[(4,6-dimethyl-2-oxo-1,2-dihydropyridin-3-yl)methyl]-7-(2-hydroxy-1-methoxyethyl)-3,4-dihydroisoquinolin-1(2H)-one] |  |  | 0.326 | 1.98 |  |
| COC(CO)c1cc(Cl)c2c(c1Cl)C(=O)N(Cc1c(C)cc(C)[nH]c1=O)CC2 (single isomer, unassigned) [Example 11, 5,8-dichloro-2-[(4,6-dimethyl-2-oxo-1,2-dihydropyridin-3-yl)methyl]-7-(2-hydroxy-1-methoxyethyl)-3,4-dihydroisoquinolin-1(2H)-one] |  |  | 0.038 | 0.174 |  |
| CCC(O)c1cc(Cl)c2c(c1Cl)C(=O)N(Cc1c(C)cc(C)[nH]c1=O)CC2 (single isomer, unassigned) [Example 27] | 0.037 | 0.3 |  |  |  |
| CCC(O)c1cc(Cl)c2c(c1Cl)C(=O)N(Cc1c(C)cc(C)[nH]c1=O)CC2 (single isomer, unassigned) [Example 28] | 0.126 | 1.89 |  |  |  |
| CCC(CO)c1cc(Cl)c2c(c1Cl)C(=O)N(Cc1c(C)cc(C)[nH]c1=O)CC2 (single isomer, unassigned) [Example 29] | 0.017 | 0.107 |  |  |  |
| CCC(CO)c1cc(Cl)c2c(c1Cl)C(=O)N(Cc1c(C)cc(C)[nH]c1=O)CC2 (single isomer, unassigned) [Example 30] | 0.004 | 0.02 |  |  |  |
| COC(c1cc(Cl)c2c(c1Cl)C(=O)N(Cc1c(C)cc(C)[nH]c1=O)CC2)C1CCN(C(=O)CO)CC1 (single isomer, unassigned) [Example 35, 5,8-dichloro-2-[(4,6-dimethyl-2-oxo-1,2-dihydropyridin-3-yl)methyl]-7-{[1-(hydroxyacetyl)piperidin-4-yl](methoxy)methyl}-3,4-dihydroisoquinolin-1(2H)-one] | 0.002 | 0.002 |  |  |  |
| COC(c1cc(Cl)c2c(c1Cl)C(=O)N(Cc1c(C)cc(C)[nH]c1=O)CC2)C1CCN(C(=O)CO)CC1 (single isomer, unassigned) [Example 36, 5,8-dichloro-2-[(4,6-dimethyl-2-oxo-1,2-dihydropyridin-3-yl)methyl]-7-{[1-(hydroxyacetyl)piperidin-4-yl](methoxy)methyl}-3,4-dihydroisoquinolin-1(2H)-one] | 0.105 | 0.443 |  |  | Ki ([3]; WT EZH2 Nucleosome assay (10X SAM) Ki (μM)): 0.136 µM |
| Cc1cc(C)c(CN2CCc3c(Cl)cc(C(CO)C4CCOCC4)c(Cl)c3C2=O)c(=O)[nH]1 (single isomer, unassigned) [Example 37] | 0.001 | 0.002 |  |  |  |
| Cc1cc(C)c(CN2CCc3c(Cl)cc(C(CO)C4CCOCC4)c(Cl)c3C2=O)c(=O)[nH]1 (single isomer, unassigned) [Example 38] | 0.378 | 0.74 |  |  |  |
| Cc1cc(C)c(CN2CCc3c(Cl)cc(C(C)CCO)c(Cl)c3C2=O)c(=O)[nH]1 (single isomer, unassigned) [Example 39] |  |  | 0.04 | 0.242 |  |
| Cc1cc(C)c(CN2CCc3c(Cl)cc(C(C)CCO)c(Cl)c3C2=O)c(=O)[nH]1 (single isomer, unassigned) [Example 40] |  |  | 0.006 | 0.024 |  |
| Cc1cc(C)c(CN2CCc3c(Cl)cc(C([C@H](C)O)[C@@H](C)O)c(Cl)c3C2=O)c(=O)[nH]1 (single isomer, unassigned) [Example 42] |  |  | 0.012 | 0.102 |  |
| Cc1cc(C)c(CN2CCc3c(Cl)cc([C@H](CO)[C@H]4CCOC4)c(Cl)c3C2=O)c(=O)[nH]1 [Example 1, 5,8-dichloro-2-[(4,6-dimethyl-2-oxo-1,2-dihydropyridin-3-yl)methyl]-7-{(1R)-2-hydroxy-1-[(3R)-tetrahydrofuran-3-yl]ethyl}-3,4-dihydroisoquinolin-1(2H)-one] |  |  | 0.001 | 0.003 |  |
| Cc1cc(C)c(CN2CCc3c(Cl)cc(C(C)C)c(Cl)c3C2=O)c(=O)[nH]1 [Example 14, 5,8-dichloro-2-[(4,6-dimethyl-2-oxo-1,2-dihydropyridin-3-yl)methyl]-7-(propan-2-yl)-3,4-dihydroisoquinolin-1(2H)-one] |  |  | 0.008 | 0.04 |  |
| Cc1cc(C)c(CN2CCc3c(Cl)cc([C@H](C)CO)c(Cl)c3C2=O)c(=O)[nH]1 [Example 18] |  |  | 0.126 | 0.995 | Ki [3, 8]: 0.115 µM |
| Cc1cc(C)c(CN2CCc3c(Cl)cc([C@@H](C)CO)c(Cl)c3C2=O)c(=O)[nH]1 [Example 19] |  |  | 0.013 | 0.132 | Ki [3, 8]: 0.01 µM |
| Cc1cc(C)c(CN2CCc3c(Cl)cc(CC(=O)O)c(Cl)c3C2=O)c(=O)[nH]1 [Example 22] |  |  | 7.82 | 95.2 |  |
| Cc1cc(C)c(CN2CCc3c(Cl)cc(CC4CCN(C(=O)CO)CC4)c(Cl)c3C2=O)c(=O)[nH]1 [Example 23] |  |  | 0.009 | 0.067 |  |
